{"source": "paper PMC11614538", "about": "“The proline-rich antimicrobial peptide B7-005: low bacterial resistance, safe for human cells and effective in zebrafish embryo bacteraemia model” (Open Biology, 2024)", "key": {"[1]": {"system": "HaCaT cells", "experiment": "Cell viability MTT, HaCaT", "type": "cell-based, human", "conditions": "24 h, DMEM, n ≥ 9", "experimental": "(§1) Chronic lymphocytic leukaemia-derived MEC-1 cells were cultured in suspension using complete RPMI (EuroClone), supplemented with 100 U ml^−1 penicillin (Sigma), 100 μg ml^−1 streptomycin (Sigma), 2 mM L-glutamine and 10% (v/v) foetal bovine serum (FBS, EuroClone). A549 human lung carcinoma epithelial cells and immortalized human keratinocytes (HaCaT) were grown in adhesion in complete high glucose Dulbecco’s MEM (DMEM, EuroClone) supplemented with 100 U ml^−1 penicillin (Sigma), […] streptomycin (Sigma), 2 mM L-glutamine and 10% (v/v) of FBS. […] All cell lines were counted in a Bürker chamber and diluted to the desired working concentrations.\n(§2) Cell viability was evaluated by tetrazolium salt (MTT, or MTS for HUVECs only) tests. […] The next day, absorbance was measured at 570 nm using a Nanoquant Infinite-M200Pro plate reader (Tecan, Switzerland).\n(§3) HUVECs, 7500 cells per well, were seeded in HESFM with 10% FBS in a 96-well flat-bottomed microtitre plate (EuroClone SpA, Italy). […] The plate was then incubated for 2 h at 37°C in a humidified 5% CO2 atmosphere, and the absorbance was measured at 490 nm, using a spectrophotometer (PowerWaveX, Bio-Tek Instruments). The cytotoxicity was calculated by comparing the absorbance of peptide-treated samples with that of the untreated control and expressed in percentage of vitality. […]"}, "[2]": {"system": "osteosarcoma cell line MG-63", "conditions": "cited from earlier work", "description": "In this study, the response of cells to B7-005 varied according to the cell type. The tumoral MEC-1 cells were the most sensitive to the cytotoxic effects of the peptide, displaying even higher sensitivity to B7-005 than observed in a previous study. However, we note that in the previous study, the peptides were generated by SPOT synthesis and therefore were of lower-grade purification, which likely explains the differences observed with our study. […] These cells were the only non-immortalized or tumor ..."}, "[3]": {"system": "HUVECs", "experiment": "Cell viability MTS, HUVEC", "type": "cell-based, human", "conditions": "24 h", "experimental": "as §1, §2, §3"}, "[4]": {"system": "zebrafish embryos", "experiment": "In vivo toxicity in zebrafish embryos", "conditions": "for mortality of larvae: within 72 h, groups of 30, at least three independent experiments", "experimental": "All experimental procedures were performed in compliance with relevant laws and institutional guidelines and were performed under the Italian Ministerial Approval (code 1FF80.N.A5X). Zebrafish eggs were placed in E3 Medium (5 mM NaCl, 0.17 mM KCl, 0.33 mM CaCl2, 0.33 mM MgSO4) and incubated at 28°C. Twenty-four hours post-fertilization (hpf), the eggs were manually dechorionated. Later, embryos were placed in E3 Medium supplemented with a final concentration of 0.2 mM phenylthiourea (PTU, Sigma-Aldrich Co.) to inhibit the production of melanin. Forty-eight hpf embryos were anaesthetized using tricaine at a final concentration of 0.02% (v/v) and placed on agarose plates, to remove the excess water and to facilitate injections. Each condition for toxicity evaluation and bacteraemia model was tested on groups of 30 embryos in at least three independent experiments. Only for biodistribution assay, groups of 10 embryos were used for two independent experiments. The injections of peptide or bacteria were performed in a volume of 4.6 nl delivered in the duct of Cuvier of embryos using capillary glass and a Nanoject II Auto-Nanoliter Injector (Drummond Scientific Co., Broomall, PA, USA) and a SteREO Microscope Discovery.V8 (Zeiss, Oberkochen, Germany, UE).\nIn vivo toxicity of B7-005 was evaluated by injecting 4.6 nl of sterile PBS containing increasing concentrations of the peptide (up to 64 mg kg^−1) in the duct of Cuvier of embryos. PBS only was injected in untreated control groups. The toxicity of the compound was assessed evaluating the mortality of larvae, kept in E3 medium at 28°C, within 72 h after injection."}}, "note": "Read-outs that look alike come from different tables or passages of the source. Residues, ends and D or L forms follow the SMILES beside them."}
{"smiles": "CC[C@H](C)[C@H](NC(=O)[C@H](CCCNC(=N)N)NC(=O)[C@@H](N)Cc1c[nH]c2ccccc12)C(=O)N[C@@H](CCCNC(=N)N)C(=O)N[C@@H](CCCNC(=N)N)C(=O)N[C@@H](CCCNC(=N)N)C(=O)N[C@@H](Cc1c[nH]c2ccccc12)C(=O)N1CCC[C@H]1C(=O)N[C@@H](CCCNC(=N)N)C(=O)N[C@@H](CC(C)C)C(=O)N1CCC[C@H]1C(=O)N[C@@H](CCCNC(=N)N)C(=O)N1CCC[C@H]1C(=O)N[C@@H](CCCNC(=N)N)C(=O)N[C@@H](Cc1c[nH]c2ccccc12)C(=O)N[C@@H](CCCNC(=N)N)C(=O)O", "note": "[B7-005] (H-WRIRRRWPRLPRPRWR-OH)", "values": [{"measurement": "IC50", "setting": "[1]", "value": "< 128", "unit": "µM"}, {"measurement": "concentration up to which MG-63 cells remained unaffected", "setting": "[2]; equivalent of 128 µg ml^−1, ref [35]", "value": "≥ 54", "unit": "µM"}, {"measurement": "concentration up to which MG-63 cells remained unaffected", "setting": "[2]; ref [35]", "value": "≥ 128", "unit": "µg/mL"}, {"measurement": "concentration up to which there were no detectable effects", "setting": "[3]", "value": "≥ 128", "unit": "µM"}, {"measurement": "IC50", "setting": "[3]; MTS, HESFM + 10% FBS, n ≥ 9", "value": "~256", "unit": "µM"}, {"measurement": "mortality of larvae", "setting": "[4]; 24 mg kg^−1, injected in duct of Cuvier, untreated control 10%", "value": "≤ 20", "unit": "%"}, {"measurement": "mortality of larvae", "setting": "[4]; 32 mg kg^−1, injected in duct of Cuvier", "value": "~ 40%"}, {"measurement": "lowest concentration significantly reducing viability of larvae", "setting": "[4]; injected in duct of Cuvier, 72 h", "value": 32, "unit": "mg/kg"}, {"measurement": "highest tolerated amount", "setting": "[4]; injected in duct of Cuvier, zebrafish embryos, 72 h", "value": 24, "unit": "mg/kg"}]}
